Data reported in patent US11447525B2 (NIIGATA UNIVERSITY, priority 2018, dated 2022).
Non-standard residues stand in square brackets, D forms with d. Residues, ends and D or L forms follow the SMILES beside them. *: point of attachment. 5FAM = O=C1OC2(c3ccc(O)cc3Oc3cc(O)ccc32)c2ccc(C(=O)*)cc21

Tests used:
[1] = system: human pancreatic cancer growth and progression mouse model (subcutaneous and intraperitoneal human pancreatic cancer cell-transplanted); test: Selective absorption into tissues of human pancreatic cancer growth and progression mouse model, fluorescence signal (Test Examples 3, 4, Reference Example 2); format: in vivo, Balb/c nu/nu mouse; details: 200 μg intravenously, 30 minutes after injection; for nonspecific absorption compared with conventional PCPP11: FIG. 10A to 10D; for absorption into pancreatic malignant tumors compared with the conventional PCPP11: FIG. 11
Method: Subsequently, 200 μg of each of the fluorescent labeled peptides prepared above in “1.” was injected intravenously into a human pancreatic cancer growth and progression mouse model (Balb/c nu/nu mouse, subcutaneous and intraperitoneal human pancreatic cancer cell-transplanted model). The pharmacokinetics of the peptide 30 minutes after the intravenous injection were then analyzed by tissue analysis of the freshly dissected specimen of the administered mouse, with the absorption quantified by detection of the fluorescence signal. […] In FIG. 9A, “sc tumor” is an abbreviation for “subcutaneous tumor”. In FIG. 9B, “abd tumor” is an abbreviation for “abdominal tumor”, indicating a tumor formed intraperitoneally. Further, “br” indicates the brain, “hr” indicates the heart, “kd” indicates the kidney, and “liv” indicates the liver. Furthermore, “liv. meta” is an abbreviation for “liver metastatic tumor”, and describes a tumor that has metastasized to the liver. Moreover, “panc” indicates the pancreas, and “sp” indicates the spleen. These same abbreviations are also used in subsequent figures. Furthermore, the term “untreated” in FIG. 9A indicates tissues resected from a mouse that was not administered with any fluorescent labeled peptide.
Specifically, first, either 27 μg or 200 μg of fluorescein was injected intravenously into a human pancreatic cancer growth and progression mouse model (Balb/c nu/nu mouse, subcutaneous and intraperitoneal human pancreatic cancer cell-transplanted model). The pharmacokinetics of the FLC 30 minutes after the intravenous injection were then analyzed by tissue analysis of the freshly dissected specimen of the administered mouse, with the absorption quantified by detection of the fluorescence signal.

[2] = system: stomach cancer cells (SCH); test: Accumulation of FAM-labeled peptides in cells, inverted fluorescence microscope (Test Example 2); format: cell-based, human; details: 2 μM, 37° C., 2 hours
Method: (§1) Tests were conducted to confirm the accumulation of each peptide in each of the cells shown below in Table 8. Further, among the peptides shown below in Table 9, the FAM-PCPP11 used in Test Example 1, the LL peptide in which the N-terminus had been FAM-labeled (FAM-LL), and the Ld peptide in which the N-terminus had been FAM-labeled (FAM-Ld) were used.
(§2) Each of FAM-PCPP11, FAM-LL and FAM-Ld was added to each of the cells shown in Table 8 in an amount sufficient to achieve a final concentration in the medium of 2 μM, and following cultivation of the cells at 37° C. for 2 hours, the sample was washed 3 times with a medium containing no peptide to remove any peptide within the medium. Subsequently, the incorporation of each of the peptides into each of the cells was evaluated visually using an inverted fluorescence microscope. Prior to the microscopic examination, the culture supernatant to which the peptide had been added was removed, and following washing three times with 1×PBS (−), a trypsin treatment was conducted to remove the adherent cells, and the resultant was immediately transferred into a new 96-well plate and once again suspended in fresh culture solution before the microscopic examination was performed. In FIG. 8A, “L” indicates the cells to which FAM-PCPP11 was added, “LL” indicates the cells to which FAM-LL was added, and “Ld” indicates the cells to which FAM-Ld was added. Further, the fluorescent images in the BxPC3 cells indicate a representative example of pancreatic cancer cells.
(§3) Furthermore, FIG. 8B is a graph quantifying the fluorescence detected in each of the above cells in FIG. 8A, with the fluorescence intensity detected in each cell shown relative to a value of 1.0 for the fluorescence detected in the H2110 cells, which is a cell line derived from an adenocarcinoma in a human non-small-cell lung cancer system, to which each of the FAM-PCPP11 and FAM-LL peptides had been added.

[3] = system: scirrhous pancreatic cancer model mouse (BxPC3 cells; BxPC3 cells and hMSC); test: Selective absorption of FAM-LL in tissues of scirrhous pancreatic cancer model mouse (Test Example 6); format: in vivo, NOD/SCID mouse; details: 200 μg into the caudal vein, 30 minutes after administration
Method: FAM-LL was administered to a pancreatic cancer model mouse having scirrhous carcinoma, and the selective absorption of the FAM-LL in various tissues of the mouse was confirmed. A scirrhous pancreatic cancer model mouse having scirrhous carcinoma that forms abundant tumor-stroma interactions was produced in accordance with the method disclosed in Reference Document 1 (Saito K et al., “Stromal mesenchymal stem cells facilitate pancreatic cancer progression by regulating specific secretory molecules through mutual cellular interaction.”, Journal of Cancer, Vol. 9, No. 16, pp. 2916-2929, 2018.). Specifically, a 6-week old NOD/SCID mouse (CLEA Japan Inc., Japan) was raised under pathogen-free conditions. BxPC3 cells (2×10^5 cells) and a cell mixture containing BxPC3 cells (1×10^5 cells) and human mesenchymal stem cells (hMSC) (1×10^5 cells) were each injected subcutaneously into the mouse.
FAM-LL (200 μg) was injected into the caudal vein of the obtained scirrhous pancreatic cancer model mouse. Subsequently, the pharmacokinetics of the peptide 30 minutes after administration were analyzed by tissue analysis of the freshly dissected specimen of the peptide-administered mouse. FIG. 18A is a series of bright-field images (left and center) and a fluorescent image (right) of the tumors in the scirrhous pancreatic cancer model mouse. […]

[4] = system: pancreatic cancer cells (BxPC3, PK-8, MIA-Paca2); test: Accumulation of FAM-labeled peptides in cells, inverted fluorescence microscope (Test Example 2); format: cell-based, human; details: 2 μM, 37° C., 2 hours
Method: as §1, §2, §3
Further, each of FAM-PCPP11, FAM-LL and FAM-NmLL was added to each of the cells shown in Table 8 in an amount sufficient to achieve a final concentration in the medium of 2 μM, and following cultivation of the cells at 37° C. for 2 hours, the sample was washed 3 times with a medium containing no peptide to remove any peptide within the medium. Subsequently, the incorporation of each of the peptides into each of the cells was evaluated visually using an inverted fluorescence microscope. […]

[5] = system: pancreatic cancer cells (BxPC3, PK-8, MIA-Paca2, AsPC1, PL45, Panc-1); test: Accumulation of various peptides in pancreatic cancer cells (Test Example 5); format: cell-based, human; details: 2 μM, 37° C., 2 hours
Method: Test were conducted to confirm the accumulation of various peptides in each of the cells shown below in Table 11. Further, the peptides shown below in Table 12 were used.
Each peptide was added to each of the cells shown in Table 11 in an amount sufficient to achieve a final concentration in the medium of 2 μM, and following cultivation of the cells at 37° C. for 2 hours, the sample was washed 3 times with a medium containing no peptide to remove any peptide within the medium. Subsequently, the incorporation of each of the peptides into each of the cells was evaluated visually using an inverted fluorescence microscope. Prior to the microscopic examination, the culture supernatant to which the peptide had been added was removed, and following washing three times with 1×PBS (−), a trypsin treatment was conducted to remove the adherent cells, and the resultant was immediately transferred into a new 96-well plate and once again suspended in fresh culture solution before the microscopic examination was performed. In FIG. 17, “L” indicates the cells to which FAM-PCPP11 was added, “d” indicates the cells to which FAM-d was added, “LL” indicates the cells to which FAM-LL was added, “LL2” indicates the cells to which FAM-LL2 was added, and “dd” indicates the cells to which FAM-dd was added.

[6] = FIG. 8B, relative to H2110 cells = 1.0

C[C@@H](O)[C@H](NC(=O)[C@@H](NC(=O)[C@@H]1CCCN1C(=O)[C@H](CCCNC(=N)N)NC(=O)[C@H](CCCNC(=N)N)NC(=O)CNC(=O)[C@@H]1CCCN1C(=O)[C@H](CCCCN)NC(=O)[C@H](Cc1c[nH]cn1)NC(=O)[C@H](Cc1c[nH]c2ccccc12)NC(=O)[C@@H](NC(=O)[C@@H](NC(=O)[C@@H]1CCCN1C(=O)[C@H](CCCNC(=N)N)NC(=O)[C@H](CCCNC(=N)N)NC(=O)c1ccc2c(c1)C(=O)OC21c2ccc(O)cc2Oc2cc(O)ccc21)[C@@H](C)O)[C@@H](C)O)[C@@H](C)O)C(=O)N[C@@H](Cc1c[nH]c2ccccc12)C(=O)N[C@@H](Cc1c[nH]cn1)C(=O)N[C@@H](CCCCN)C(=O)N1CCC[C@H]1C(=O)O [FAM-LL] (5FAM-RRPTTWHKPGRRPTTWHKP-OH; C-terminus assumed)
inhibitory performance on nonspecific absorption into untargeted normal organs [1]: satisfactorily maintained
nonspecific absorption compared with conventional PCPP11 [1]: inhibited even more effectively
absorption into pancreatic malignant tumors compared with the conventional PCPP11 [1]: 3 fold
fluorescence compared with the sample containing FAM-PCPP11 [2]: stronger fluorescence
increase of quantitative value for the fluorescence compared with FAM-PCPP11 [2, 6]: at least 2.9 fold
absorption into the cancer cell nests inside the tumor tissue [3]: strong absorption
absorption into the tumor tissue [3]: strong absorption
fluorescence compared with the sample containing FAM-PCPP11 [4]: stronger fluorescence
increase of quantitative value for the fluorescence compared with FAM-PCPP11 [4, 6]: at least 2.9 fold
fluorescence compared with the other peptides [5]: stronger fluorescence
fluorescence detected [5]: particularly strong fluorescence

C[C@@H](O)[C@H](NC(=O)[C@@H](NC(=O)[C@@H]1CCCN1C(=O)[C@H](CCCNC(=N)N)NC(=O)[C@H](CCCNC(=N)N)NC(=O)CNC(=O)[C@@H]1CCCN1C(=O)CNC(=O)[C@@H]1CCCN1C(=O)[C@H](CCCCN)NC(=O)[C@H](Cc1c[nH]cn1)NC(=O)[C@H](Cc1c[nH]c2ccccc12)NC(=O)[C@@H](NC(=O)[C@@H](NC(=O)[C@@H]1CCCN1C(=O)[C@H](CCCNC(=N)N)NC(=O)[C@H](CCCNC(=N)N)NC(=O)c1ccc2c(c1)C(=O)OC21c2ccc(O)cc2Oc2cc(O)ccc21)[C@@H](C)O)[C@@H](C)O)[C@@H](C)O)C(=O)N[C@@H](Cc1c[nH]c2ccccc12)C(=O)N[C@@H](Cc1c[nH]cn1)C(=O)N[C@@H](CCCCN)C(=O)N1CCC[C@H]1C(=O)O [FAM-LL2] (5FAM-RRPTTWHKPGPGRRPTTWHKP-OH; C-terminus assumed)
fluorescence compared with the other peptides [5]: stronger fluorescence

C[C@H](O)[C@@H](NC(=O)[C@@H](Cc1c[nH]c2ccccc12)NC(=O)[C@@H](Cc1c[nH]cn1)NC(=O)[C@@H](CCCCN)NC(=O)[C@H]1CCCN1C(=O)CNC(=O)[C@@H]1CCCN1C(=O)[C@H](CCCCN)NC(=O)[C@H](Cc1c[nH]cn1)NC(=O)[C@H](Cc1c[nH]c2ccccc12)NC(=O)[C@@H](NC(=O)[C@@H](NC(=O)[C@@H]1CCCN1C(=O)[C@H](CCCNC(=N)N)NC(=O)[C@H](CCCNC(=N)N)NC(=O)c1ccc2c(c1)C(=O)OC21c2ccc(O)cc2Oc2cc(O)ccc21)[C@@H](C)O)[C@@H](C)O)C(=O)N[C@@H](C(=O)N1CCC[C@@H]1C(=O)N[C@H](CCCNC(=N)N)C(=O)N[C@H](CCCNC(=N)N)C(=O)O)[C@H](C)O [FAM-Ld] (5FAM-RRPTTWHKPG[dP][dK][dH][dW][dT][dT][dP][dR][dR]-OH; C-terminus assumed)
inhibitory performance on nonspecific absorption into untargeted normal organs [1]: satisfactorily maintained
nonspecific absorption compared with conventional PCPP11 [1]: inhibited even more effectively
absorption into pancreatic malignant tumors compared with the conventional PCPP11 [1]: approximately 4 fold
fluorescence compared with the sample containing FAM-PCPP11 [2]: stronger fluorescence
fluorescence compared with the sample containing FAM-PCPP11 [4]: stronger fluorescence
